Columns and labels:
[1] = system: 5-hydroxytryptamine-induced constriction; assay: Inhibition of 5-hydroxytryptamine induced bronchoconstriction in the anaesthetised, artificially respired guinea pig (Konzett-Rossler preparation); assay type: in vivo; details: Cavia porcellus, iv, read-out: ID50 against 5-hydroxytryptamine-induced constriction
Experimental: (§1) 1. The compounds were examined for their ability to inhibit 5-hydroxytryptamine or histamine induced bronchoconstriction in the anaesthetised, artificially respired guinea pig (Konzett-Rossler preparation). The compounds were administered intravenously.

[2] = system: bronchoconstriction induced by an histamine aerosol; assay: Protection of conscious guinea pigs against bronchoconstriction induced by an histamine aerosol (Herxheimer test); assay type: in vivo, guinea pig; set-up: key to Aerosol route Activity (class symbol) / Oral route Activity (class symbol): A: active; details: mean of several experiments; for minimal effective dose: Cavia porcellus, read-out: Oral route Activity: dose at which active; for minimal effective dose / Oral route Activity (class symbol): oral route
Experimental: 2. the compounds were also examined for their ability to protect conscious guinea pigs against bronchoconstriction induced by an histamine aerosol (Herxheimer test). In these experiments the compounds were administered by aerosol or by oral administration. The results are shown in Table B. The results are the mean of several experiments.

[3] = system: indomethacin induced gastric damage; assay: Anti-ulcer activity: inhibition of indomethacin induced gastric damage in the rat; assay type: in vivo; details: 100 mg/kg orally, 30 minutes prior to 15 mg/kg indomethacin s.c., groups of 7 rats, score scale 1-9
Experimental: Anti-ulcer activity was assessed by the inhibition of indomethacin induced gastric damage in the rat according to the method of Eleghe (1974) Israeli J. Med. Sci. 10. 1451. Rats were starved overnight given 15 mg/kg indomethacin subcutaneously and sacrificed 4 hours later. Stomachs were reflated with n.saline, cut along the greater curvature pinned out and scored for gastric damage by the following system:
Score 1-3--according to degree of erythema and slight haemorrhage.
Score 4-6--according to degree of mucosal erosion.
Score 7-9--according to depth of gastric damage.
Groups of 7 rats were used for each treatment and the test compound or vehicle were administered 30 minutes prior to giving the indomethacin. Dose of test compound was 100 mg/kg orally and control groups receiving vehicle only were set up simultaneously. Mean values for each treatment were obtained using the above scoring system and the Mann Witney test applied for significance of difference between the values obtained with the treatments.

[4] = system: pentagastrin-stimulated gastric acid secretion; assay: Inhibition of pentagastrin-stimulated gastric acid secretion in the anaesthetised, perfused rat stomach preparation (Ghosh and Schild preparation); assay type: in vivo; details: i.v.
Experimental: The compounds were examined for their ability to inhibit pentagastrin-stimulated gastric acid secretion in the anaesthetised, perfused rat stomach preparation (Ghosh and Schild preparation). The compounds were administered intra-venously.

[5] = system: platelet aggregation induced by collagen in human platelet rich plasma; assay: Inhibition of collagen-induced platelet aggregation in vitro in human platelet rich plasma; assay type: cell-based; details: for inhibition at 100 µM: collagen-induced
Excerpt: The compounds were examined for their ability to inhibit platelet aggregation induced in vitro by collagen in human platelet rich plasma.

[6] = system: heart fibrillation induced by chloroform; assay: Anti-arrythmic activity: prevention of heart fibrillation in mice exposed to chloroform; assay type: in vivo; details: 100 mg/kg intraperitoneally, group of 3 mice
Excerpt: The compounds were examined for anti-arrythmic activity by determining their ability to prevent heart fibrillation in mice exposed to chloroform.

[7] = in vivo; set-up: species or system mice; details: mouse
Experimental: For example, Compound 17 was not toxic in mice at doses up to 300 mg/kg, orally, or at doses up to 100 mg/kg, intraperitoneally, whereas Compound 21 was not toxic at doses up to 900 mg/kg, orally, in mice.

[8] = system: histamine-induced bronchoconstriction; assay: Inhibition of histamine induced bronchoconstriction in the anaesthetised, artificially respired guinea pig (Konzett-Rossler preparation); assay type: in vivo; details: Cavia porcellus, iv, read-out: ID50 against histamine-induced constriction
Experimental: as §1

SMILES | ED50 [1] | Aerosol route Activity (class symbol) [2] | further results
CCCCCCCC(C)(O)CCN1C(=O)N(C)C(=O)C1CCCCCCC(=O)OC (centres unmarked) [Compound 1, 1-(3'-hydroxy-3'-methyl-n-decyl)-3-methyl-5-(6"-methoxycarbonyl-n-hexyl)hydantoin] | 4.5 µg/kg | A | –
CCCCCCC(C)(O)CCN1C(=O)N(CC)C(=O)C1CCCCCCC(=O)OCC (centres unmarked) [Compound 2, 1-(3'-hydroxy-3'-methyl-n-nonyl)-3-ethyl-5-(6"-ethoxycarbonyl-n-hexyl)hydantoin] | 6.8 µg/kg | A | –
CCCCCCC(C)(O)CCN1C(=O)N(C)C(=O)C1CCCCCCC(=O)OCC (centres unmarked) [Compound 3] | 0.4 µg/kg | A | minimal effective dose [2]: 0.25 mg/kg; Oral route Activity (class symbol) [2]: A
COC(=O)CCCCCCC1C(=O)N(C)C(=O)N1CCC1(O)CCCCC1 (centres unmarked) [Compound 4] | 220 µg/kg | – | –
CCCCCCC(C)(O)CCN1C(=O)N(C)C(=O)C1CCCCCCC(=O)OC (centres unmarked) [Compound 6] | 1.5 µg/kg | – | –
CCCCC(C)C(C)(O)CCN1C(=O)N(C)C(=O)C1CCCCCCC(=O)OC (centres unmarked) [Compound 7] | 3.3 µg/kg | – | –
CCCCCCC(C)(O)CCN1C(=O)N(CC)C(=O)C1CCCCCCC(=O)O (centres unmarked) [Compound 16, 1-(3'-hydroxy-3'-methyl-n-nonyl)-3-ethyl-5-(6"-carboxy-n-hexyl)hydantoin] | 5.8 µg/kg | A | –
CCCCCCCC(C)(O)CCN1C(=O)N(C)C(=O)C1CCCCCCC(=O)O (centres unmarked) [Compound 17] | 8.5 µg/kg | A | Test Mean Score + S.E. of Mean (gastric damage score) [3]: 0.43 ± 0.30; inhibited gastric acid secretion over the dose range [4]: 5 to 10 mg/kg; inhibition at 100 µM [5]: 34%; prevention of fibrillation induced by chloroform [6]: prevented fibrillation; NOAEL ([7]; ip): ≥ 100 mg/kg; NOAEL ([7]; po): ≥ 300 mg/kg
CCC(C)(O)CCN1C(=O)N(C)C(=O)C1CCCCCCC(=O)O (centres unmarked) [Compound 18] | – | – | inhibition at 100 µM [5]: 100%; IC50 ([5]; in vitro, read-out: IC50 against collagen-induced aggregation): 7 µM
CN1C(=O)C(CCCCCCC(=O)O)N(CCC2(O)CCCCC2)C1=O (centres unmarked) [Compound 19] | > 220 µg/kg | – | –
CCCCCCC(C)(O)CCN1C(=O)N(C)C(=O)C1CCCCCCC(=O)O (centres unmarked) [Compound 21, 1-(3'-hydroxy-3'-methyl-n-nonyl)-3-methyl-5-(6"-carboxy-n-hexyl)hydantoin] | 0.6 µg/kg | A | ED50 [8]: 0.6 µg/kg; minimal effective dose [2]: 0.25 mg/kg; Oral route Activity (class symbol) [2]: A; NOAEL ([7]; po): ≥ 900 mg/kg
CCCCC(C)C(C)(O)CCN1C(=O)N(C)C(=O)C1CCCCCCC(=O)O (centres unmarked) [Compound 22] | 3.2 µg/kg | – | Test Mean Score + S.E. of Mean (gastric damage score) [3]: 0.00 ± 0.00
CN1C(=O)C(CCCCCCC(=O)O)N(CCC(C)(O)c2ccccc2)C1=O (centres unmarked) [Compound 23] | 60 µg/kg | – | –
CCCCCCC(O)CCN1C(=O)N(C)C(=O)C1CCCCCCC(=O)O (centres unmarked) [Compound 24] | 6 µg/kg | – | –
CCCCCCC(C)(O)CCN1C(=O)N(C(C)(C)C)C(=O)C1CCCCCCC(=O)O (centres unmarked) [Compound 25] | – | – | Test Mean Score + S.E. of Mean (gastric damage score) [3]: 1.14 ± 0.74
CCCCCCC(C)(O)CCN1C(=S)N(C)C(=O)C1CCCCCCC(=O)OC (centres unmarked) [Compound 30, 1-(3'-hydroxy-3'-methyl-n-nonyl)-3-methyl-5-(6"-methoxycarbonyl-n-hexyl)-2-thiohydantoin] | – | – | Test Mean Score + S.E. of Mean (gastric damage score) [3]: 0.14 ± 0.14
CCCCCCC(C)(O)CCN1C(=S)N(C)C(=O)C1CCCCCCC(=O)OCC (centres unmarked) [Compound 31] | 4.2 µg/kg | – | Test Mean Score + S.E. of Mean (gastric damage score) [3]: 0.00 ± 0.00
